This note sets out measurements from US12466829B2, “Spirocyclic piperidine melanocortin subtype-2 receptor (MC2R) antagonists and uses thereof” (Crinetics Pharmaceuticals, Inc., priority 2019, dated 2025).

Structures are written as SMILES.

The target of this assay is T1, hMC2 receptor (Homo sapiens, UniProt Q01718).
T1 construct: host or cells: CRE-bla-CHO-K1 cells
T1 sequence (Q01718 whole entry): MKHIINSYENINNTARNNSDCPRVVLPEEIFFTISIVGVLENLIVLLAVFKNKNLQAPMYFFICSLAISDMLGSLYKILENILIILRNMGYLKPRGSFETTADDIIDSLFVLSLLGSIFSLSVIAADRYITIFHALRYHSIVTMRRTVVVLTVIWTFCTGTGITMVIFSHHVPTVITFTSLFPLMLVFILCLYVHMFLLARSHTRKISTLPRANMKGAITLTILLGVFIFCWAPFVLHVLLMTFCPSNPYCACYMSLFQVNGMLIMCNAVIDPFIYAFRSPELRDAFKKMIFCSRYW
T1 sequence (Q8TCY5 whole entry partner): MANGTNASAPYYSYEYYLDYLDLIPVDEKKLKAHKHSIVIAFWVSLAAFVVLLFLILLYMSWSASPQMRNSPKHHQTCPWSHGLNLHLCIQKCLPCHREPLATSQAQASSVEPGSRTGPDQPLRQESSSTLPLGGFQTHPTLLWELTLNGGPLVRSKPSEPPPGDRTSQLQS
Briefly: hMC2 membrane binding assay ([125I]ACTH (1-39) Tyr23, SPA). To be noted: crude membranes of CRE-bla-CHO-K1 cells expressing hMC2 receptor and hMRAP; 0.2 nM [125I]ACTH (1-39) Tyr23; 1.5 hours at room temperature; read-out: MC2R binding potency. As to the method:
Crude membrane fractions are prepared from CRE-bla-CHO-K1 cells stably expressing hMC2 receptor and hMRAP accessory protein (Thermo Fisher). The cells are grown to 85-100% confluence on standard tissue culture dishes in GlutaMax DMEM growth media (Gibco) with following additives: 10% dialyzed FBS (Gemini), 0.1 mM NEAA (Gibco), 25 mM HEPES (Gibco), 5 μg/mL blasticidin (Goldbio), 100 μg/mL zeocin (Invitrogen), 600 μg/mL hygromycin (Goldbio). To prepare membranes, cells are scraped and collected in 1× Dulbecco's phosphate buffered saline (Corning) and then pelleted at 1000 RPM's. The cell pellet is reconstituted in membrane preparation buffer (20 mM HEPES, 6 mM MgCl2 and 1 mM EGTA, protease inhibitor tablets (Pierce) adjusted to pH 7.4), homogenized using a dounce homogenizer, and the resulting membrane fraction is pelleted by centrifugation at 12,000 RPM's. The membrane pellet is resuspended in membrane preparation buffer, snap freezed and stored at −80° C. for later use.
The hMC2 membrane binding assay utilizes the following components: radiolabel [^125I]ACTH (1-39) Tyr23 (PerkinElmer), wheatgerm agglutinin coated PVT SPA beads (PerkinElmer), crude hMC2R membranes, and compounds. Briefly hMC2R membranes are incubated with SPA beads in binding assay buffer (50 mM HEPES, 5 mM MgCl2, 1 mM CaCl2), 0.2% BSA, protease inhibitor tablets (Pierce) adjusted to pH7.4) prior to assay initiation. […] Assay plates are read using a Top Count NXT and Ki values for compounds are determined using a GraphPad Prism 6 non-linear regression analysis.
`CCOc1ccccc1-c1ccc2c(c1)N(C(=O)CN)CC21CCN(c2ccc(C(F)(F)F)cc2C#N)CC1` [1-2, 2-[1-(2-aminoacetyl)-6-(2-ethoxyphenyl)-1,2-dihydrospiro[indole-3,4′-piperidin]-1′-yl]-5-(trifluoromethyl)benzonitrile]: the Ki was 10 to 100 nM.

As to `CCOc1ncccc1-c1ccc2c(c1)N(C(=O)CCN)CC21CCN(c2ccc(OC)nc2C#N)CC1` [1-43, 3-[1-(3-aminopropanoyl)-6-(2-ethoxypyridin-3-yl)-1,2-dihydrospiro[indole-3,4′-piperidin]-1′-yl]-6-methoxypyridine-2-carbonitrile], the Ki fell in the range of 10 to 100 nM.

Consider `CCOc1ncccc1-c1ccc2c(c1)N(CCN)C(=O)NC21CCN(c2ccc(C(F)(F)F)cc2C#N)CC1` [1-64, 2-[1′-(2-aminoethyl)-7′-(2-ethoxypyridin-3-yl)-2′-oxo-2′,3′-dihydro-1′H-spiro[piperidine-4,4′-quinazolin]-1-yl]-5-(trifluoromethyl)benzonitrile], for which the Ki was less than 10 nM.

With `CCOc1ncccc1-c1ccc2c(n1)N(C[C@@H](C)N)CC21CCN(c2ccc(C(F)(F)F)cc2C#N)CC1` [1-46, 2-{1′-[(2R)-2-aminopropyl]-6′-(2-ethoxypyridin-3-yl)-1′,2′-dihydrospiro[piperidine-4,3′-pyrrolo[2,3-b]pyridin]-1-yl}-5-(trifluoromethyl)benzonitrile], the Ki was less than 10 nM.

`CCOc1ncccc1-c1ccc2c(n1)N(C(=O)CCNC)CC21CCN(c2ccc(C(F)(F)F)cc2C#N)CC1` [1-50, 2-[6′-(2-ethoxypyridin-3-yl)-1′-[3-(methylamino)propanoyl]-1′,2′-dihydrospiro[piperidine-4,3′-pyrrolo[2,3-b]pyridin]-1-yl]-5-(trifluoromethyl)benzonitrile]: the Ki is less than 10 nM.

Turning to `CCOc1ncccc1-c1ccc2c(c1)N(C(=O)CCN)CC21CCN(c2ccc(F)c(C(F)(F)F)n2)CC1` [1-20, 3-amino-1-[6-(2-ethoxypyridin-3-yl)-1′-[5-fluoro-6-(trifluoromethyl)pyridin-2-yl]-1,2-dihydrospiro[indole-3,4′-piperidin]-1-yl]propan-1-one], the Ki fell in the range of 1000 to 10000 nM.

For `CCOc1ncccc1-c1ccc2c(c1)N(C[C@@H](C)N)CC21CCN(c2ccc(Cl)cc2C(F)F)CC1` [1-45, (2R)-1-{1′-[4-chloro-2-(difluoromethyl)phenyl]-6-(2-ethoxypyridin-3-yl)-1,2-dihydrospiro[indole-3,4′-piperidin]-1-yl}propan-2-amine], the Ki was in the range of 10 to 100 nM.

For `CCOc1ncccc1-c1ccc2c(n1)N(C(=O)NC[C@H](C)N)CC21CCN(c2ccc(C(F)(F)F)cc2C#N)CC1` [1-56, N-[(2S)-2-aminopropyl]-1-[2-cyano-4-(trifluoromethyl)phenyl]-6′-(2-ethoxypyridin-3-yl)-1′,2′-dihydrospiro[piperidine-4,3′-pyrrolo[2,3-b]pyridine]-1′-carboxamide], the Ki fell in the range of 10 to 100 nM.

For `CCOc1ncccc1-c1ccc2c(c1)N(C(=O)C[C@H](C)N)CC21CCN(c2ccc(C(F)(F)F)cc2C#N)CC1` [1-5, 2-{1-[(3 S)-3-aminobutanoyl]-6-(2-ethoxypyridin-3-yl)-1,2-dihydrospiro[indole-3,4′-piperidin]-1′-yl}-5-(trifluoromethyl)benzonitrile], the Ki is 10 to 100 nM.

As for `CCOc1ncccc1-c1ccc2c(n1)N(C(=O)[C@H](C)N)CC21CCN(c2ccc(C(F)(F)F)cc2C#N)CC1` [1-48, 2-{1′-[(2S)-2-aminopropanoyl]-6′-(2-ethoxypyridin-3-yl)-1′,2′-dihydrospiro[piperidine-4,3′-pyrrolo[2,3-b]pyridin]-1-yl}-5-(trifluoromethyl)benzonitrile], the Ki was less than 10 nM.

Turning to `CCOc1ncccc1-c1ccc2c(c1)N([C@@H]1CCN(C)C1)C(=O)C21CCN(c2ccc(C(F)(F)F)cc2C#N)CC1` [1-21, 2-[6-(2-ethoxypyridin-3-yl)-1-[(3R)-1-methylpyrrolidin-3-yl]-2-oxo-1,2-dihydrospiro[indole-3,4′-piperidin]-1′-yl]-5-(trifluoromethyl)benzonitrile], the Ki lay within 10 to 100 nM.

Regarding `CCOc1ncccc1-c1ccc2c(n1)N(C(=O)N[C@@H]1CCNC1)CC21CCN(c2ccc(C(F)(F)F)cc2C#N)CC1` [1-57, 1-[2-cyano-4-(trifluoromethyl)phenyl]-6′-(2-ethoxypyridin-3-yl)-N-[(3R)-pyrrolidin-3-yl]-1′,2′-dihydrospiro[piperidine-4,3′-pyrrolo[2,3-b]pyridine]-1′-carboxamide], the Ki is 10 to 100 nM.

`CCOc1ncccc1-c1ccc2c(c1)N(C[C@H](C)N)C(=O)CC21CCN(c2ccc(C(F)(F)F)cc2C#N)CC1` [1-68, 2-{1′-[(2S)-2-aminopropyl]-7′-(2-ethoxypyridin-3-yl)-2′-oxo-2′,3′-dihydro-1′H-spiro[piperidine-4,4′-quinolin]-1-yl}-5-(trifluoromethyl)benzonitrile]: the Ki lay in the range of 10 to 100 nM.

In the case of `C[C@@H](N)CN1CC2(CCN(c3ccc(C(F)(F)F)cc3C#N)CC2)c2ccc(-c3ccccc3CO)cc21` [1-42, 2-{1-[(2R)-2-aminopropyl]-6-[2-(hydroxymethyl)phenyl]-1,2-dihydrospiro[indole-3,4′-piperidin]-1′-yl}-5-(trifluoromethyl)benzonitrile], the Ki lay in the range of 10 to 100 nM.

As for `CCOc1ncccc1-c1ccc2c(c1)N(CCNC)C(=O)NC21CCN(c2ccc(C(F)(F)F)cc2C#N)CC1` [1-65, 2-[7′-(2-ethoxypyridin-3-yl)-1′-[2-(methylamino)ethyl]-2′-oxo-2′,3′-dihydro-1′H-spiro[piperidine-4,4′-quinazolin]-1-yl]-5-(trifluoromethyl)benzonitrile], the Ki was less than 10 nM.

In the case of `CCOc1ccc(N2CCC3(CC2)CN(C(=O)CCN)c2cc(-c4cccnc4OCC)ccc23)c(C(F)(F)F)n1` [1-23, 3-amino-1-{1′-[6-ethoxy-2-(trifluoromethyl)pyridin-3-yl]-6-(2-ethoxypyridin-3-yl)-1,2-dihydrospiro[indole-3,4′-piperidin]-1-yl}propan-1-one], the Ki fell in the range of 10 to 100 nM.

As for `CCOc1ccc(N2CCC3(CC2)CN(C(=O)CCN)c2cc(-c4cccnc4OCC)ccc23)nc1C(F)(F)F` [1-25, 3-amino-1-{1′-[5-ethoxy-6-(trifluoromethyl)pyridin-2-yl]-6-(2-ethoxypyridin-3-yl)-1,2-dihydrospiro[indole-3,4′-piperidin]-1-yl}propan-1-one], the Ki fell in the range of 1000 to 10000 nM.

As to `CCOc1ncccc1-c1ccc2c(c1)N(C(=O)N[C@@H]1CCNC1)CC21CCN(c2ccc(C(F)(F)F)cc2C#N)CC1` [1-32, 1′-[2-cyano-4-(trifluoromethyl)phenyl]-6-(2-ethoxypyridin-3-yl)-N-[(3R)-pyrrolidin-3-yl]-1,2-dihydrospiro[indole-3,4′-piperidine]-1-carboxamide], the Ki is 10 to 100 nM.

As for `CCOc1ncccc1-c1ccc2c(n1)N(CCN)CC21CCN(c2ccc(C(F)(F)F)cc2C#N)CC1` [1-29, 2-[1′-(2-aminoethyl)-6′-(2-ethoxypyridin-3-yl)-1′,2′-dihydrospiro[piperidine-4,3′-pyrrolo[2,3-b]pyridin]-1-yl]-5-(trifluoromethyl)benzonitrile], the Ki is less than 10 nM.

As for `CCOc1ncccc1-c1ccc2c(c1)N([C@@H]1CCNC1)C(=O)C21CCN(c2ccc(C(F)(F)F)cc2C#N)CC1` [1-18, 2-[6-(2-ethoxypyridin-3-yl)-2-oxo-1-[(3R)-pyrrolidin-3-yl]-1,2-dihydrospiro[indole-3,4′-piperidin]-1′-yl]-5-(trifluoromethyl)benzonitrile], the Ki is less than 10 nM.

Turning to `CCOc1ncccc1-c1ccc2c(n1)N(CCNC)C(=O)C21CCN(c2ccc(C(F)(F)F)cc2C#N)CC1` [1-63, 2-[6′-(2-ethoxypyridin-3-yl)-1′-[2-(methylamino)ethyl]-2′-oxo-1′,2′-dihydrospiro[piperidine-4,3′-pyrrolo[2,3-b]pyridin]-1-yl]-5-(trifluoromethyl)benzonitrile], the Ki was less than 10 nM.

Take `CCOc1ncccc1-c1ccc2c(c1)N(C(=O)[C@@H]1CCNC1)CC21CCN(c2ccc(C(F)(F)F)cc2C#N)CC1` [1-9, 2-[6-(2-ethoxypyridin-3-yl)-1-[(3R)-pyrrolidine-3-carbonyl]-1,2-dihydrospiro[indole-3,4′-piperidin]-1′-yl]-5-(trifluoromethyl)benzonitrile]: the Ki was 10 to 100 nM.

With `CCOc1ncccc1-c1ccc2c(n1)N([C@H]1CCNC1)CC21CCN(c2ccc(C(F)(F)F)cc2C#N)CC1` [1-53, 2-[6′-(2-ethoxypyridin-3-yl)-1′-[(3S)-pyrrolidin-3-yl]-1′,2′-dihydrospiro[piperidine-4,3′-pyrrolo[2,3-b]pyridin]-1-yl]-5-(trifluoromethyl)benzonitrile], the Ki fell in the range of 10 to 100 nM.

Regarding `CCOc1ncccc1-c1ccc2c(c1)N(C(=O)NC[C@H](C)N)CC21CCN(c2ccc(C(F)(F)F)cc2C#N)CC1` [1-31, N-[(2S)-2-aminopropyl]-1′-[2-cyano-4-(trifluoromethyl)phenyl]-6-(2-ethoxypyridin-3-yl)-1,2-dihydrospiro[indole-3,4′-piperidine]-1-carboxamide], the Ki is 10 to 100 nM.
